# What was measured:
# Type in all cases: in vivo
# Rhizoctonia solani = experiment: Control test to damping-off of cucumber (Rhizoctonia solani); settings: 31.3 ppm, soil drench, 14 days
# Description: (1) The fungus causing damping-off of cucumber seedlings, Rhizoctonia solani or Fusarium oxysporum was cultured on a wheat bran medium at 28° C. for 5 days, which was mixed with sterilized soil and cultured for 2 days to prepare the inoculum. Sterilized soil (150 g) was put into a pot of 9 cm in diameter. The surface of the spot was covered with the above inoculum. […] Twenty cucumber seeds (Cultivar: Matsukaze) were sown 2 days after. The pots were kept at 30°±2° C. for 14 days. The infection was observed 14 days after and disease degree and percent disease degree were obtained by setting an evaluation index for each disease sympton.
# (2) Evaluation [formula] wherein a: number of seeds without germination b: number of seedlings showing damping-off c: number of wilted seedlings d: number of seedlings being a little brownish in cotyledons or at the bottom of the stem e: number of uninfected seedlings [formula] wherein a: number of seeds without germination or seedlings with damping-off b: number of wilted seedlings c: number of seedlings being a little brownish in cotyledons or at the bottom of the stem d: number of uninfected seedlings [formula]
# Botrytis cinerea = experiment: Control test of Botrytis rot (gray mold) of cucumber
# Sclerotinia sclerotiorum = experiment: Control test to Sclerotinia rot of cucumber
# Source text: (1) This test was practised in the same manner as in the above test, control test of Botrytis rot (gray mold) of cucumber, except for using the mycelium of Sclerotinia sclerotiorum as inoculm. The same as in test 2.
# Sphaerotheca fuliginea [1] = experiment: Control test to powdery mildew of cucumber (foliar and soil treatment); settings: index 0-10
# Sphaerotheca fuliginea [2] = experiment: Control test to powdery mildew of cucumber by vapor (filter paper disks)
# Description: (1) The first leaves of young cucumber (Cultivar: Matsukaze) planted in pot of 9 cm in diameter were inoculated with spore suspension of Sphaerotheca fuliginea. After the plants were kept in a greenhouse for 2 days, thin cover plates, 15 mm in diameter, were put on the first leaves. Filter paper disks soaked with 80 μl of test solution at a concentration of 31.3, 7.8, 2.0 or 0.5 ppm were put on the plates for 3 days. Disease degrees were observed 14 days after the inoculation.
# It is evaluated as + when an inhibition zone was observed around the plate, as ± when the inhibition zone has nearly the same diameter (8 mm) as that of plate or as - when there is no inhibition zone.
# (§1) (1) Test methods and evaluation are the same as those in Tests 2, 4 and 6.
# [3] = test system: powdery mildew of cucumber and Borytis rot (gray mold) of cucumber; experiment: Comparative test of cis- and trans-isomers; settings: cis isomer vs trans isomer, about
# Source text: Each cis- and trans-isomers of 1-(4-chlorophenyl)-2-(1,2,4-triazol-1-yl)cyclohexanol (Compound 22 and the trans-isomer)) and 1-(4-fluorophenyl)-2-(1,2,4-triazol-1-yl)cyclohexanol (Compound 28 and the trans-isomer) are subjected to control test to powdery mildew of cucumber and to Borytis rot (gray mold) of cucumber.
# as §1
smiles,measurement,setting,value
"O[C@@]1(c2ccc(F)cc2)CCCC[C@H]1n1cncn1 (relative stereo) [Compound 28, 1-(4-fluorophenyl)-2-(1,2,4-triazol-1-yl)cyclohexanol]",Disease Degree,Rhizoctonia solani,8
same,Percent Disease Control,Rhizoctonia solani,92%
same,"Percent Disease Control, Curative Spraying","Botrytis cinerea; Table 2, 31.3 ppm",48%
same,"Percent Disease Control, Protective Spraying","Botrytis cinerea; Table 2, 31.3 ppm",40%
same,"Percent Disease Control, Curative Spraying","Botrytis cinerea; Table 2, 125 ppm",79%
same,"Percent Disease Control, Protective Spraying","Botrytis cinerea; Table 2, 125 ppm",100%
same,"Gray Mold, Percent Disease Control, Curative Spraying","Botrytis cinerea; Table 9, 7.8 ppm",30%
same,"Gray Mold, Percent Disease Control, Protective Spraying","Botrytis cinerea; Table 9, 7.8 ppm",17%
same,"Gray Mold, Percent Disease Control, Curative Spraying","Botrytis cinerea; Table 9, 31.3 ppm",92%
same,"Gray Mold, Percent Disease Control, Protective Spraying","Botrytis cinerea; Table 9, 31.3 ppm",70%
same,"Gray Mold, Percent Disease Control, Curative Spraying","Botrytis cinerea; Table 9, 125 ppm",98%
same,"Gray Mold, Percent Disease Control, Protective Spraying","Botrytis cinerea; Table 9, 125 ppm",80%
same,"Percent Disease Control, Curative Spraying",Sclerotinia sclerotiorum; 31.3 ppm,77%
same,"Percent Disease Control, Protective Spraying",Sclerotinia sclerotiorum; 31.3 ppm,56%
same,"Percent Disease Control, Curative Spraying",Sclerotinia sclerotiorum; 125 ppm,97%
same,"Percent Disease Control, Protective Spraying",Sclerotinia sclerotiorum; 125 ppm,80%
same,"Powdery mildew, Foliar Treatment, Curative Effect","Sphaerotheca fuliginea [1]; Table 9, 0.03 ppm",0
same,"Powdery mildew, Foliar Treatment, Protective Effect","Sphaerotheca fuliginea [1]; Table 9, 0.03 ppm",0
same,"Powdery mildew, Foliar Treatment, Curative Effect","Sphaerotheca fuliginea [1]; Table 9, 0.12 ppm",7 (Disease sign is observed on the leaf in about 20%.)
same,"Powdery mildew, Foliar Treatment, Protective Effect","Sphaerotheca fuliginea [1]; Table 9, 0.12 ppm",0
same,"Powdery mildew, Foliar Treatment, Curative Effect","Sphaerotheca fuliginea [1]; Table 9, 0.5 ppm",10
same,"Powdery mildew, Foliar Treatment, Protective Effect","Sphaerotheca fuliginea [1]; Table 9, 0.5 ppm",5 (Disease sign is observed on the leaf in about 30%.)
same,"Powdery mildew, Soil Treatment, Protective Effect","Sphaerotheca fuliginea [1]; Table 9, 0.5 ppm",0
same,"Powdery mildew, Foliar Treatment, Curative Effect","Sphaerotheca fuliginea [1]; Table 9, 2.0 ppm",10
same,"Powdery mildew, Foliar Treatment, Protective Effect","Sphaerotheca fuliginea [1]; Table 9, 2.0 ppm",10
same,"Powdery mildew, Soil Treatment, Protective Effect","Sphaerotheca fuliginea [1]; Table 9, 2.0 ppm",9
same,"Powdery mildew, Soil Treatment, Protective Effect","Sphaerotheca fuliginea [1]; Table 9, 7.8 ppm",10
same,"Powdery mildew, Soil Treatment, Protective Effect","Sphaerotheca fuliginea [1]; Table 9, 31.3 ppm",10
same,"Foliar Treatment, Curative Effect","Sphaerotheca fuliginea [1]; second Table 4, 0.5 ppm",5 (Disease sign is observed on the leaf in about 30%.)
same,"Foliar Treatment, Protective Effect","Sphaerotheca fuliginea [1]; second Table 4, 0.5 ppm",0
same,"Soil Treatment, Protective Effect","Sphaerotheca fuliginea [1]; second Table 4, 0.5 ppm",0
same,"Foliar Treatment, Curative Effect","Sphaerotheca fuliginea [1]; second Table 4, 2.0 ppm",9
same,"Foliar Treatment, Protective Effect","Sphaerotheca fuliginea [1]; second Table 4, 2.0 ppm",5 (Disease sign is observed on the leaf in about 30%.)
same,"Soil Treatment, Protective Effect","Sphaerotheca fuliginea [1]; second Table 4, 2.0 ppm",5 (Disease sign is observed on the leaf in about 30%.)
same,"Foliar Treatment, Curative Effect","Sphaerotheca fuliginea [1]; second Table 4, 7.8 ppm",10
same,"Foliar Treatment, Protective Effect","Sphaerotheca fuliginea [1]; second Table 4, 7.8 ppm",10
same,"Soil Treatment, Protective Effect","Sphaerotheca fuliginea [1]; second Table 4, 7.8 ppm",10
same,"Foliar Treatment, Curative Effect","Sphaerotheca fuliginea [1]; second Table 4, 31.3 ppm",10
same,"Foliar Treatment, Protective Effect","Sphaerotheca fuliginea [1]; second Table 4, 31.3 ppm",10
same,"Soil Treatment, Protective Effect","Sphaerotheca fuliginea [1]; second Table 4, 31.3 ppm",10
same,"Powdery mildew, Vapor Effect","Sphaerotheca fuliginea [2]; Table 9, 2.0 ppm",-
same,"Powdery mildew, Vapor Effect","Sphaerotheca fuliginea [2]; Table 9, 7.8 ppm",±
same,"Powdery mildew, Vapor Effect","Sphaerotheca fuliginea [2]; Table 9, 31.3 ppm",+
same,times more effective than the corresponding trans isomer,[3],4-16 times
